This note sets out measurements from patent US12466840B2, “Small molecule inhibitors of KRAS proteins” (Merck Sharp & Dohme LLC, priority 2023, dated 2025).

In one data set the target is KRAS G12C (Homo sapiens (Human), UniProt P01116, C118S/C51S/C80L/G12C). Description: SOS-catalyzed nucleotide exchange assay (GNE), KRAS G12C. It is filed as biochemical. As to conditions: TR-FRET, 60 min preincubation; protein with C51S/C80L/C118S. The source says:
(§1) Procedure for SOS-Catalyzed Nucleotide Exchange Assay for KRAS-WT, G12C/D/V/A/R/S, G13D, Q61H, HRAS-WT, and NRAS-WT
(§2) Recombinant KRAS-G12C protein used in this assay has an additional triple mutation (C51S/C80L/C118S). Whereas KRAS-WT, G12D/V/A/S/R, G13D, Q61H, HRAS and NRAS are in context of their WT protein sequence background. Specifically, the SOS-catalyzed nucleotide exchange assay utilizes a preformed TR-FRET complex containing a specific biotinylated RAS protein (KRAS-WT, G12C/V/D/A/S/R, G13D, Q61H, HRAS-WT, NRAS-WT; described above) with Bodipy-GDP, and Terbium-streptavidin. Compounds are preincubated with this complex for 60 minutes. Subsequently, recombinant human SOS protein and unlabeled GTP are added to initiate the exchange reaction. Small molecule inhibitors stabilize the Bodipy-GDP complex whereas the untreated protein rapidly exchanges Bodipy-GDP for unlabeled GTP resulting in reduced TR-FRET signal.
(§3) To assemble the preformed TR-FRET complexes, each biotinylated RAS protein is diluted to 2 μM in an EDTA Buffer (20 mM HEPES pH 7.5, 50 mM sodium chloride, 10 mM EDTA, and 0.01% Tween) and incubated at room temperature for one hour. This mixture is then further diluted to 90 nM in an Assay Buffer (20 mM HEPES pH 7.5, 150 mM sodium chloride, 10 mM magnesium chloride, and 0.005% Tween) containing 15 nM of Terbium-Streptavidin (Invitrogen, catalog #PV3577) and 900 nM of Bodipy-GDP (Invitrogen, catalog #G22360) and incubated at room temperature for six hours. It should be noted that this preformed TR-FRET complex for each of the RAS protein were made ahead of time, aliquoted and stored at −80° C. until the day of the experiment.
(§4) Each test compound (10 mM stock in DMSO) is diluted in DMSO to make a final-10-point, 3-fold dilution and is acoustically dispensed into a 384-well assay plate (Corning, catalog #3820) using an Echo 550 (Labcyte). Each well of the assay plate receives 3 μL of a specific 3×RAS preformed TR-FRET complex and 3 μL of Assay Buffer and is incubated at room temperature for 60 minutes (preincubation time). Each well then receives 3 μL of 3× recombinant human SOS protein and GTP (Sigma, G8877) in Assay Buffer and is incubated at room temperature for 30 minutes (G13D), 60 minutes (KRAS WT/G12C/D, H/NRAS) or 90 minutes for G12A/R/S/V and Q61H. The final reaction in each well of 9 μL consists of 3 mM GTP, specific Ras and SOS proteins in the following concentrations: KRAS-G12C/SOS=3 nM/40 nM, KRAS-WT and G12D/SOS=1 nM/40 nM, KRAS-G12V/SOS=1.25 nM/160 nM, KRAS-G12A/S/SOS=1 nM/160 nM, KRAS-G12R/SOS=1 nM/320 nM, KRAS-Q61H/SOS=1 nM/320 nM, KRAS-G13D/SOS=1.25 nM/[…], HRAS-WT and NRAS-WT=1.25 nM/40 nM.
(§5) The time-resolved fluorescence resonance energy transfer (TR-FRET) signal is measured on an Envision (PerkinElmer) plate reader: Excitation filter=340 nm; emission1=495 nm; emission2=520 nm; dichroic mirror=D400/D505; delay time=[…]. The signal of each well is determined as the ratio of the emission at 520 nm to that at 495 nm. Percent effect of each well is determined after normalization to control wells containing DMSO (no effect) or a saturating concentration of inhibitor (max effect). The apparent effect as a function of compound concentration is fit to a four-parameter logistic equation.

Data set [1] is described as follows: Dog IV/PO pharmacokinetic studies. It is filed as in vivo. The following applies: male, plasma. The method, then:
Procedure for Dog IV/PO Pharmacokinetic Studies
Plasma pharmacokinetic parameters for clearance, volume of distribution, half-life, mean residence time (MRT) and oral bioavailability were determined in dogs from oral administration and IV administration studies. 4 male dogs, typically weighing 8-12 kg, were fasted overnight prior to dosing. IV formulation was administered to 2 dogs via the saphenous or cephalic vein, and oral dosing was administered to 2 dogs via oral gavage. Blood was collected by the cephalic or jugular vein, typically at predose, 2, 8, 15, 30 min, 1, 2, 4, 6, 8 and 24 h postdose for IV, and at predose, 15, 30 min, 1, 2, 4, 6, 8, and 24 hr for oral dosing. Samples were collected in K2EDTA tubes, stored on ice, and centrifuged. Plasma was transferred to a micro titer plate and stored at −70° C. until analysis. Plasma samples were extracted using protein precipitation and analyzed by liquid chromatography separation followed by mass spec detection (LC-MS/MS), using a standard curve for each compound. Plasma pharmacokinetic parameters were calculated for IV and oral dosing data by non-compartmental methods. Oral bioavailability was determined as the ratio of the dose-normalized plasma area under the curve (AUC) following oral dosing vs. IV dosing.

Data set [2] can be described thus: Rat IV/PO pharmacokinetic studies. It is filed as in vivo. The following applies: male, plasma. The method, then: Procedure for Rat IV/PO Pharmacokinetic Studies
Plasma pharmacokinetic parameters for clearance, volume of distribution, half-life and oral bioavailability were determined in rats from oral administration and IV administration studies. 4 male rats, typically weighing 225-260 g, were fasted overnight prior to dosing. IV formulation was administered to 2 rats via pre-cannulated jugular vein, and oral dosing was administered to 2 rats via oral gavage. Blood was collected by pre-cannulated artery, typically at predose, 2, 8, 15, 30 min, 1, 2, 4, 6, and 8 hr postdose for IV, and at predose, 15, 30 min, 1, 2, 4, 6, 8 h for oral dosing. Samples were collected in K2EDTA tubes, stored on ice, and centrifuged. Plasma was transferred to a micro titer plate and stored at −70° C. until analysis. Plasma samples were extracted using protein precipitation and analyzed by liquid chromatography separation followed by mass spec detection (LC-MS/MS), using a standard curve for each compound. Plasma pharmacokinetic parameters were calculated for IV and oral dosing data by non-compartmental methods. Oral bioavailability was determined as the ratio of the dose-normalized plasma area under the curve (AUC) following oral dosing vs. IV dosing.

Another data set deals with KRAS WT (Homo sapiens (Human), UniProt P01116). Description: SOS-catalyzed nucleotide exchange assay (GNE), KRAS WT. Type of data set: biochemical. As to conditions: TR-FRET, 60 min preincubation.
KRAS WT, sequence (P01116 other isoform, or with tags, fused parts or gaps): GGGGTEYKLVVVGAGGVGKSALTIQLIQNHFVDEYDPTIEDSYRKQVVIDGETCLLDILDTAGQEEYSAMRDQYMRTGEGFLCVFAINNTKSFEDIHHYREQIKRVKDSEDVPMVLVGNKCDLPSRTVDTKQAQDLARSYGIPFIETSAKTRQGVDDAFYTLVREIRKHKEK
Description: as §1, §2, §3, §4, §5

The next data set addresses KRAS G12S (Homo sapiens (Human), UniProt P01116, G12S). Briefly: SOS-catalyzed nucleotide exchange assay (GNE), KRAS G12S. As to conditions: TR-FRET, 60 min preincubation. It is filed as biochemical.
Description: as §1, §2, §3, §4, §5
(TR-FRET usually uses a lanthanide donor and a delayed reading to cut background.)

What is called IC50 is the concentration that gives 50% inhibition. A lower IC50 goes with greater potency in that assay. As usually defined, the MRT is a mean duration of stay, worked out from the concentration-time curve. One may read the bioavailability as dose-corrected exposure relative to a reference, in per cent. Lower therefore signals poor availability.

KRAS G12S, sequence (P01116 other isoform, or with tags, fused parts or gaps G12S (already in the parent)): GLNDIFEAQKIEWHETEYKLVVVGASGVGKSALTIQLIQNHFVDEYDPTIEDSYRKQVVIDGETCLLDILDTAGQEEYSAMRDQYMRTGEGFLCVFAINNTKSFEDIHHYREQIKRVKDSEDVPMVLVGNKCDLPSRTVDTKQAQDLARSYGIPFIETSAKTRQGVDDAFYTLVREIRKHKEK
KRAS G12C, sequence (P01116 other isoform, or with tags, fused parts or gaps, stated change not applied): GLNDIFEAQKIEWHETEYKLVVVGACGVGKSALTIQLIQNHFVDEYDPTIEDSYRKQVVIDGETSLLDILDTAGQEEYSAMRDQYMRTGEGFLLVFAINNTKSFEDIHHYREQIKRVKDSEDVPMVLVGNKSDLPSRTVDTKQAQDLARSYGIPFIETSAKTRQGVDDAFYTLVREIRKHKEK

Consider `CCc1c(F)ccc2cc3[nH]nc(C)c3c(-c3nc4c5c(nc(OC[C@@]67CCCN6C[C@H](F)C7)nc5c3F)N3CCCOC[C@H]3CO4)c12` [Ex-6, (8aS)-5-(5-ethyl-6-fluoro-3-methyl-1H-benzo[f]indazol-4-yl)-4-fluoro-2-(((2R,7aS)-2-fluorotetrahydro-1H-pyrrolizin-7a(5H)-yl)methoxy)-8a,9,12,13-tetrahydro-8H,11H-7,10-dioxa-1,3,6,13a-tetraazanaphtho[1,8-ab]heptalene], for which the 50% inhibitory concentration (IC50) came to 6.5 nM on KRAS G12C, 1.6 nM against KRAS WT and 1.2 nM at KRAS G12S. Also, the clearance in data set [1] (IV 0.25 mg/kg (Ex-2 0.05 mg/kg), read-out: CLp) amounted to 8 mL/min/kg; in data set [2] (IV 1 mg/kg, read-out: CLp), 36 mL/min/kg. Moreover, the mean residence time MRT was 7.8 h in data set [1] (IV 0.25 mg/kg (Ex-2 0.05 mg/kg), read-out: MRT) and 2.4 h in data set [2] (IV 1 mg/kg, read-out: MRT). In addition, the Vd in data set [1] (IV 0.25 mg/kg (Ex-2 0.05 mg/kg), read-out: Vd) was found to be 3.7 L/kg; in data set [2] (IV 1 mg/kg, read-out: Vd), 5.1 L/kg. For the same compound, the bioavailability in data set [1] (oral bioavailability, PO 0.5 mg/kg vs. IV) amounted to 59%; in data set [2] (oral bioavailability, PO 2 mg/kg vs. IV 1 mg/kg), 18%.
